Assay results: patent publication US20220274979A1 (Bayer Pharma Aktiengesellschaft, priority 2018, published 2022)

biological target: T1, hSOS1 (hSOS1-mediated loading of hK-RasG12C-GDP) (Homo sapiens, UniProt Q07889); assay: Biochemical Assay 3: hK-RasG12C activation assay by hSOS1 (loading with fluorescent GTP analog, HTRF); details: no GTP
T1 construct: hSOS1 (amino acid 564-1049); made in house; host or cells: E. coli BL21 (DE3)
T1 sequence (Q07889 with tags, fused parts or gaps): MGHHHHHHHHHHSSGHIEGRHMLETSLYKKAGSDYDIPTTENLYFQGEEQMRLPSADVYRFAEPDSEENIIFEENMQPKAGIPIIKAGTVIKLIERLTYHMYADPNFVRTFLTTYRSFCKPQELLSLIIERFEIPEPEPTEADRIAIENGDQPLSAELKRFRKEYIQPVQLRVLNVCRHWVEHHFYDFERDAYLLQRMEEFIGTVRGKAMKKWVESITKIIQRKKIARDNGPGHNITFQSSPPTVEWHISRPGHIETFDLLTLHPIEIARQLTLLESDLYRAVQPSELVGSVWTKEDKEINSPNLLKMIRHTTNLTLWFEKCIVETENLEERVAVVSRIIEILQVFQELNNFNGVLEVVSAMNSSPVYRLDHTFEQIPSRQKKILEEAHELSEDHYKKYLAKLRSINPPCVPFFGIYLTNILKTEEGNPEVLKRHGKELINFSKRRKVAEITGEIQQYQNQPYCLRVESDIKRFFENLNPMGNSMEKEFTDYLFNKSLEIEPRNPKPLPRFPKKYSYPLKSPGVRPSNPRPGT

| Compound | IC50 [µM] |
| --- | --- |
| COc1cc2c(N[C@H](C)c3ccc(F)c(Cl)c3)nc(C)nc2cn1 [Example 8] | > 20 |
| Cc1nc(NC(C)c2ccc(-c3ccccc3CN(C)C)s2)c2cc(OC3CCS(=N)(=O)CC3)ncc2n1 (stereo not shown) [Example 77, N-[1-(5-{2-[(dimethylamino)methyl]phenyl}-2-thienyl)ethyl]-6-[(1-imino-1-oxidohexahydro-1lambda4-thiopyran-4-yl)oxy]-2-methylpyrido[3,4-d]pyrimidin-4-amine] | 0.0843 |
| COc1cc2c(NC(C)c3cccc4nn(C)cc34)nc(C)nc2cn1 (stereo not shown) [Example 17, 6-methoxy-2-methyl-N-[1-(2-methyl-2H-indazol-4-yl)ethyl]pyrido[3,4-d]pyrimidin-4-amine] | ≥ 40 |
| Cc1nc(N[C@H](C)c2cccc(Br)c2)c2cc(F)ncc2n1 [Example 34, N-[(1R)-1-(3-bromophenyl)ethyl]-6-fluoro-2-methylpyrido[3,4-d]pyrimidin-4-amine] | > 20 |
| CNCc1ccccc1-c1ccc(C(C)Nc2nc(C)nc3cnc(F)cc23)s1 (stereo not shown) [Example 36, 6-fluoro-2-methyl-N-[1-(5-{2-[(methylamino)methyl]phenyl}thiophen-2-yl)ethyl]pyrido[3,4-d]pyrimidin-4-amine] | > 20 |
| COc1cc2c(NC(C)c3cccc4c3cnn4C)nc(C)nc2cn1 (stereo not shown) [Example 14, 6-methoxy-2-methyl-N-[1-(1-methyl-1H-indazol-4-yl)ethyl]pyrido[3,4-d]pyrimidin-4-amine] | 12.6 |
| Cc1nc(N[C@H](C)c2ccc(F)cc2)c2cc(F)ncc2n1 [Example 9] | > 20 |
| Cc1nc(NC(C)c2ccc(-c3ccccc3CN(C)C)s2)c2cc(C3CCN(C)C3=O)ncc2n1 (mixture of isomers) [Example 69, 3-(4-{[1-(5-{2-[(dimethylamino)methyl]phenyl}thiophen-2-yl)ethyl]amino}-2-methylpyrido[3,4-d]pyrimidin-6-yl)-1-methylpyrrolidin-2-one] | 0.141 |
| Cc1nc(NC(C)c2ccc(-c3ccccc3CN(C)C)s2)c2cc(N3CC(N)C3)ncc2n1 (stereo not shown) [Example 93, 6-(3-aminoazetidin-1-yl)-N-[1-(5-{2-[(dimethylamino)methyl]phenyl}thiophen-2-yl)ethyl]-2-methylpyrido[3,4-d]pyrimidin-4-amine] | 0.0829 |
| Cc1nc(NC(C)c2ccc(-c3ccccc3CO)s2)c2cc(F)ncc2n1 (stereo not shown) [Example 68, [2-(5-{1-[(6-fluoro-2-methylpyrido[3,4-d]pyrimidin-4-yl)amino]ethyl}thiophen-2-yl)phenyl]methanol] | > 20 |
| Cc1nc(N[C@H](C)c2cccc(Br)c2)c2cc(NCCN3CCOCC3)ncc2n1 [Example 39] | 1.64 |
| Cc1nc(NC(C)c2ccc(-c3ccccc3CN(C)C)s2)c2cc(N3CCC3)ncc2n1 (stereo not shown) [Example 71, 6-(azetidin-1-yl)-N-[1-(5-{2-[(dimethylamino)methyl]phenyl}thiophen-2-yl)ethyl]-2-methylpyrido[3,4-d]pyrimidin-4-amine] | 0.0825 |
| Cc1nc(N[C@H](C)c2cccc(Br)c2)c2nc(OCc3ccccc3)ncc2n1 [Example 20, 6-(benzyloxy)-N-[(1R)-1-(3-bromophenyl)ethyl]-2-methylpyrimido[5,4-d]pyrimidin-4-amine] | ≥ 40 |
| Cc1nc(NC(C)c2ccc(-c3ccccc3CN(C)C)s2)c2cc(OCC3CC3)ncc2n1 (stereo not shown) [Example 73, 6-(cyclopropylmethoxy)-N-[1-(5-{2-[(dimethylamino)methyl]phenyl}thiophen-2-yl)ethyl]-2-methylpyrido[3,4-d]pyrimidin-4-amine] | 0.138 |
| CCOc1cc2c(NC(C)c3ccc(-c4ccccc4CN(C)C)s3)nc(C)nc2cn1 (stereo not shown) [Example 63, N-[1-(5-{2-[(dimethylamino)methyl]phenyl}thiophen-2-yl)ethyl]-6-ethoxy-2-methylpyrido[3,4-d]pyrimidin-4-amine] | 0.0611 |
| CC(=O)NCCNc1cc2c(NC(C)c3ccc(-c4ccccc4CN(C)C)s3)nc(C)nc2cn1 (stereo not shown) [Example 51, N-{2-[(4-{[1-(5-{2-[(dimethylamino)methyl]phenyl}thiophen-2-yl)ethyl]amino}-2-methylpyrido[3,4-d]pyrimidin-6-yl)amino]ethyl}acetamide] | 0.0895 |
| CSc1cc2c(NC(C)c3ccc(-c4ccccc4CN(C)C)s3)nc(C)nc2cn1 (stereo not shown) [Example 59, N-[1-(5-{2-[(dimethylamino)methyl]phenyl}thiophen-2-yl)ethyl]-2-methyl-6-(methylsulfanyl)pyrido[3,4-d]pyrimidin-4-amine] | 0.0677 |
| CCOc1cc2c(N[C@H](C)c3ccc(C#N)cc3)nc(C)nc2cn1 [Example 18, 4-{(1R)-1-[(6-ethoxy-2-methylpyrido[3,4-d]pyrimidin-4-yl)amino]ethyl}benzonitrile] | 4.54 |
| Cc1nc(NC(C)c2ccc(-c3ccccc3CN(C)C)s2)c2cc(N3CC(NS(=O)(=O)c4ccccc4)C3)ncc2n1 (stereo not shown) [Example 94, N-[1-(4-{[1-(5-{2-[(dimethylamino)methyl]phenyl}thiophen-2-yl)ethyl]amino}-2-methylpyrido[3,4-d]pyrimidin-6-yl)azetidin-3-yl]benzenesulfonamide] | 0.17 |
| COc1cc2c(NC(C)c3ccc(-c4ccccc4CN(C)C)s3)nc(C)nc2cn1 (stereo not shown) [Example 64, N-[1-(5-{2-[(dimethylamino)methyl]phenyl}thiophen-2-yl)ethyl]-6-methoxy-2-methylpyrido[3,4-d]pyrimidin-4-amine] | 0.0803 |
| Cc1nc(NC(C)c2ccc(-c3ccccc3CN(C)C)s2)c2cc(NCCn3ccnc3)ncc2n1 (stereo not shown) [Example 56, N4-[1-(5-{2-[(dimethylamino)methyl]phenyl}-2-thienyl)ethyl]-N6-[2-(1H-imidazol-1-yl)ethyl]-2-methylpyrido[3,4-d]pyrimidine-4,6-diamine] | 0.0895 |
| Cc1nc(NC(C)c2ccc(-c3ccccc3CN(C)C)s2)c2cc(N3CC(NC(=O)c4ccccc4)C3)ncc2n1 (stereo not shown) [Example 88, N-[1-(4-{[1-(5-{2-[(dimethylamino)methyl]phenyl}thiophen-2-yl)ethyl]amino}-2-methylpyrido[3,4-d]pyrimidin-6-yl)azetidin-3-yl]benzamide] | 0.173 |
